assay: Human HepG2 cell viability assay in 384 well format; assay type: toxicity, cell-based; design: dose 125 nL, time 70.5 hour; concentration not given beside the values; details: HepG2 cells, read-out: Inhibition

| Structure (SMILES) | cytotoxicity at 70.5 h |
| --- | --- |
| CN1CCC2(C=C(C(=O)N3CCCC3)c3ccccc32)CC1 | 1.49% |
| OC1(CN2CCCC2)CCCN(Cc2cnc(-c3ccco3)nc2)C1 (stereo unspecified) | 2.98% |
| CC(C)C[C@H](NC(=O)Nc1ccc(F)c(Cl)c1)C(=O)O | 6.99% |
| FCCOc1cccc(NCc2c[nH]nc2-c2cccnc2)c1 | -3.33% |
| CC1CCN(S(=O)(=O)NC2CCCCNC2=O)CC1 (stereo unspecified) | -5.25% |
| O=C(CCN1C(=O)CC2(CCCC2)C1=O)NCCc1nccs1 | -22.6% |
| O=c1n(CC2CCCCO2)nc(CC2CCNCC2)n1-c1ccccc1 (stereo unspecified) | -6.56% |
| Cc1cc(C(C)(O)CNC(=O)C2(C)CCCC2)c(C)o1 (stereo unspecified) | -0.0569% |
| COCC1CN(c2ncc(F)cn2)Cc2cnn(C)c21 (stereo unspecified) | -4.56% |
| COc1cc(CNC2CCCN(c3cccnn3)C2)cc2c1OCO2 (stereo unspecified) | -3.66% |
| Cc1sc2c(C3CCNCC3)nc(Nc3cccc(F)c3)n2c1C | 15.7% |
| N#Cc1c(F)cccc1N1CCC(NS(=O)(=O)c2cccs2)CC1 | 13.5% |
| Cc1cccc(CN(C(=O)NCc2ccccn2)C2CC2)c1 | -8.28% |
| Cc1csc(CN(CC2CCCO2)C(=O)c2occc2C)n1 (stereo unspecified) | 22.1% |
| OCCNC1CCc2cc3c(cc21)OCCO3 (stereo unspecified) | 9.99% |
| COCCNc1nc2c(c(NCc3cnc(C)c(C)c3)n1)CCNCC2 | -3.2% |
| O=S(=O)(N1CCCCC1)N1CCOC2(CCCC2)C1 | -0.763% |
| CCc1nc2c(c(C)c(C)n2Cc2cccnc2)c(N)c1C | 0.896% |
| OC1(CNCCc2nc(Cc3ccccc3)no2)CNCCOC1 (stereo unspecified) | 0.264% |
| OCCc1cc(C2CCCN2c2ncccn2)n[nH]1 (stereo unspecified) | -2.35% |
| COC(=O)c1ccc(N2CCN(C(=O)c3cc(C)no3)C(C)C2)cc1 (stereo unspecified) | -12% |
| COc1cc(CN2C[C@H](OC)[C@]3(CCCO3)C2)ccc1F | 19.1% |
| COCc1cc(N2CCOCC2)n2nccc2n1 | -3.4% |
| Cc1ccc(Oc2ncccc2CNC(=O)C2COC(=O)N2)c(F)c1F (stereo unspecified) | -11.2% |

| Structure (SMILES) | cytotoxicity at 70.5 h |
| --- | --- |
| c1cnn(C2CN(Cc3nc(-c4ccsc4)no3)C2)c1 | -11.9% |
| O=C(CN1CCCCC1Cn1cncn1)Nc1ccncc1 (stereo unspecified) | 3.49% |
| CCc1ccc(O)c(C(=O)N2CCN(CC(=O)N(CC)CC)CC2)c1 | 1.25% |
| COc1cc2nc(NCc3ccc(C)nc3)nc(N)c2cc1OC | -5.25% |
| O=C(CN1CCOC(c2ccc(Cl)s2)C1)NCc1ccco1 (stereo unspecified) | 17% |
| Cc1cc(N2Cc3cnn(CCO)c3C2)nc(-c2ccccc2O)n1 | -4.43% |
| CC1=N[C@@]2(CC[C@@H]3CN(C(=O)NC(C)C)C[C@@H]32)C(=O)N1CC1CC1 | 1.82% |
| CC(NC(=O)OC(C)(C)C)c1nnc(S(=O)(=O)Cc2ccc(Cl)cc2)o1 (stereo unspecified) | 4.02% |
| COc1ccccc1CNC(=O)COc1c(C)n(C)ccc1=O | -20.3% |
| Cc1cc(C(=O)N2CCC(C)CC2)ccc1NS(C)(=O)=O | -4.78% |
| CCOCC(O)CN1CCN(C(=O)c2cc(F)ccc2C)CC1 (stereo unspecified) | -18.9% |
| COc1ccc(NC(C)C(=O)NCCc2cccs2)cc1F (stereo unspecified) | 9.05% |
| Cc1ccc(CC(=O)N2CCN(CC(C)O)CC2)cn1 (stereo unspecified) | -5.27% |
| O=C(c1ccoc1)N1CC[C@@H]2O[C@@H](COCCN3CCCC3)CC[C@@H]21 | -12.6% |
| CC(C)c1ncc(CN2CCCC(CO)C2)cn1 (stereo unspecified) | -8.2% |
| CS(=O)(=O)N1CCc2c(cccc2NC(=O)NC2CCCC2)C1 | -3.1% |
| CC(=O)N(C)CC(=O)NC1(c2ccc(Br)cc2)CC1 | 4.73% |
| CCC[C@H]1CN(S(=O)(=O)c2c(C)noc2C)C[C@@H]1N | -3.53% |
| O=c1cc2c(nn1CN1CCN(c3ccccc3)CC1)CCC2 | -4.25% |
| CN1CCCC(CCC(=O)N2CCc3[nH]c(-c4ccccc4)nc3C2)C1 (stereo unspecified) | 20.8% |
| CCN(Cc1ccc(F)c(F)c1)Cc1nc2c(cnn2C)c(=O)[nH]1 | -4.48% |
| COc1ncccc1CNC(=O)CN1CCCCCC1=O | -16.5% |
| Cc1csc(N2CCN(C(=O)c3c(C)oc(C)c3C)CC2)n1 | -1.28% |
| CCN(CC)CCCNCc1cc2cc(C)cc(C)c2[nH]c1=O | 3.4% |

| Structure (SMILES) | cytotoxicity at 70.5 h |
| --- | --- |
| CN(C)C(=O)N1CCN(C)c2ncccc2C1 | -7.19% |
| OCCN1CCN(Cc2cnc3c(-c4ccccc4)cnn3c2)CC1 | 6.6% |
| O=C(Nc1ccc2occc2c1)N1CCCC(O)(CO)CC1 (stereo unspecified) | -1.52% |
| c1ccc(-c2nc(CN3CCCCC3Cn3cncn3)co2)cc1 (stereo unspecified) | -0.916% |
| N#Cc1ccccc1CC1CCCS(=O)(=O)C1 (stereo unspecified) | 1.43% |
| Cc1noc(C)c1-c1cccc(C2CN(CC(=O)N(C)C)CCO2)n1 (stereo unspecified) | -4.85% |
| c1ccc2oc(CCCN3CCOC(Cn4cccn4)C3)nc2c1 (stereo unspecified) | 0.524% |
| O=C1CC(c2cccs2)c2snc(C(=O)O)c2N1 (stereo unspecified) | -9.35% |
| Cn1cccc1-c1cc(C(=O)N2CCCC2C(F)(F)F)[nH]n1 (stereo unspecified) | -5.87% |
| O=C(NCCCO)C1CC(=O)N(c2n[nH]c3cccc(F)c23)C1 (stereo unspecified) | 1.35% |
| O=C(NCCn1ccnc1)N1CCN(Cc2ccco2)CC1 | -3.81% |
| CC(=O)N1[C@H](Cn2cncn2)C[C@@H]2CN(c3ncccn3)CC[C@@H]21 | 1.33% |
| Cc1cc(CC(C)NC2CCN(CC(C)C)CC2)[nH]n1 (stereo unspecified) | -10.6% |
| COCCN1CCC2(CC1)CC(NCc1ccc(C)s1)c1ccccc12 (stereo unspecified) | 2.38% |
| CC(C)NC(=O)CNC(=O)OC(C)(C)C | -13% |
| Nc1ncccc1C(=O)NCc1cccc(Cl)c1 | -8.22% |
| Cn1nc(N2CCCC(C(=O)Nc3nc4ccccc4s3)C2)ccc1=O (stereo unspecified) | 1.88% |
| c1ccc(OCCN2CCC(n3cncn3)CC2)cc1 | 25.3% |
| CNC(=O)C1CN(Cc2cc(C)on2)CCN(C(C)=O)C1 (stereo unspecified) | -9.11% |
| Cc1ccccc1Oc1ncccc1CNC(=O)Cn1cccnc1=O | 3.17% |
| Cc1cccc(C(=O)N2CCN(S(C)(=O)=O)[C@@H]3CS(=O)(=O)C[C@@H]32)n1 | -7.33% |
| O=C(c1cn(-c2cccc(Cl)c2F)nn1)N1CCCSCC1 | -13.2% |
| CCCn1cc(C(=O)NCCc2ccc3c(c2)OCO3)c(C)n1 | -4.51% |
| NCc1ccc(OC(F)F)cc1OC(F)F | -15.9% |

| Structure (SMILES) | cytotoxicity at 70.5 h |
| --- | --- |
| CCn1c(=O)n(Cc2nc(C3CC3)no2)c2ccccc21 | 23.4% |
| COc1ccc(NC(=O)N2CCCC2c2ccncc2)cn1 (stereo unspecified) | -11.6% |
| O=C(CN1C(=O)CCNC1=O)N1CCC2(CCc3ccccc32)CC1 | 16.2% |
| O=C1NCc2ccccc2CC12CCN(Cc1ccccc1Cl)CC2 | -3.39% |
| CCc1nc(C2CCCN(C(=O)CC3CCOCC3)C2)no1 (stereo unspecified) | -8.83% |
| Cc1c(C(=O)NC2=NCCS2)cnn1-c1ccc(Cl)cc1 | -3.08% |
| Cc1cc(OCC(=O)NCc2ccc(F)cc2)nnc1C | -6.01% |
| Cn1ccc(C(=O)NC2CCC23CCN(Cc2nccs2)CC3)c1 (stereo unspecified) | -4.21% |
| Cc1cccc(C)c1NC(=O)c1cccc(N(C)S(C)(=O)=O)c1C | -14.1% |
| COC(=O)N1CCC(Nc2ccc(C#N)c(Cl)c2)C1 (stereo unspecified) | 1.68% |
| Cc1ccc(-c2nnc(CN3CCNC(=O)C3)o2)cc1 | -4.25% |
| CC(C)n1ncc2c1NC(=O)CC21C(=O)Nc2c(Cl)cc(Br)cc21 (stereo unspecified) | -0.17% |
| NC1CCCc2nc(-c3ccccc3)ncc21 (stereo unspecified) | -8.86% |
| Cc1nc(C)c2c(n1)CCN(C(=O)CN(C)C)CC2 | 2.27% |
| Cc1ccccc1CC(=O)NS(=O)(=O)c1cccc2cnccc12 | -40.8% |
| COCCN(Cc1cc(O)nc2ccccc12)C(=O)NC(C)C | -14.7% |
| Cc1ncc2c(n1)CN(C(C(N)=O)c1ccc(F)cc1)CC2 (stereo unspecified) | -2.82% |
| CC(=O)NCCC1CCCCN1S(=O)(=O)c1cccc(F)c1 (stereo unspecified) | 19.6% |
| O=C(C1CCCOC1)N1CCCc2ccccc21 (stereo unspecified) | -4.78% |
| Cn1c(N2CCOCC2)nc2cc(C(=O)NCc3cccnc3)ccc21 | -9.04% |
| CN(C)CCO[C@@H]1CC[C@H]2[C@H]1OCCN2C(=O)c1ccccc1F | -10.8% |
| CS(=O)(=O)C1(CNCc2cccc(-n3cccn3)c2)CCOCC1 | 12.5% |
| COc1cc(C)ccc1OCc1nc(C(=O)N2CCCO2)co1 | 10.4% |
| c1cnc(N2CCC(NCc3cnc(C4CCC4)s3)CC2)nc1 | -11.5% |

| Structure (SMILES) | cytotoxicity at 70.5 h |
| --- | --- |
| O=C(C[S+]([O-])Cc1cccc(F)c1)NC1CCCC1 (stereo unspecified) | 0.67% |
| Cn1cccc1C(=O)NCc1cnc2n1CCN(C(N)=O)CC2 | -4.35% |
| CC(C)N(Cc1cccnc1)C(=O)CSc1ccc(C#N)cc1 | -8.92% |
| CC(CNC(=O)CCc1ccco1)N1CCc2sccc2C1 (stereo unspecified) | 3.4% |
| Cc1cc(CN2CCCN(c3ccc(C#N)cc3)CC2)no1 | -7.74% |
| Cc1cc2ccccc2n1CCC(=O)NCCN(C)S(C)(=O)=O | -13.9% |
| Cc1nc(CNC(=O)CC2C(=O)NCCN2Cc2ccccc2C)n[nH]1 (stereo unspecified) | -0.629% |
| COc1c(C(=O)N2CCOCC2)cnc2c1c(C)nn2C | 0.987% |
| Cn1cnnc1C1CCCN(C(=O)c2ccccn2)C1 (stereo unspecified) | 16% |
| COc1ccc(CCN2CCCC(n3cncn3)C2)cc1 (stereo unspecified) | -10.1% |
| COCCn1c2c(ccc1=O)CCN(Cc1ccoc1)CC2 | -3.82% |
| O=C(c1ccncc1F)N1CCc2onc(COc3cccnc3)c2C1 | -6.64% |
| Cc1nc(C(C)N(C)Cc2nc(CCC(C)C)no2)c(C)s1 (stereo unspecified) | 0.293% |
| C[C@@H]1CN(c2ccc(Cl)cn2)C[C@@]1(O)C1CC1 | -3.66% |
| CC(C)C(C)(C#N)NC(=O)CN1CCCN(Cc2ccccc2F)CC1 (stereo unspecified) | -3.81% |
| Cn1cc(CNC2CCc3c(ccc(=O)n3Cc3cccnc3)C2)cn1 (stereo unspecified) | -14.4% |
| c1cc(CNCC2OCCc3cn(CC4CCOCC4)nc32)ccn1 (stereo unspecified) | 9.22% |
| Cn1c2c(c(=O)n1C)CN(C(=O)c1ccncc1F)CCC2 | 5.23% |
| CCN(Cc1ccoc1)C(=O)C1CN(C(=O)OC(C)(C)C)C1 | -13.5% |
| CC(=O)N1Cc2ccccc2CC1C(=O)Nc1cc(C)ccn1 (stereo unspecified) | -15.2% |
